Laboratory results published in US9499493B2, “2,4-pyrimidinediamine compounds and their uses” (Rigel Pharmaceuticals, Inc., priority 2002, dated 2016).

How the values were obtained:
[1] = system: cultured human mast cells (CHMC); assay: CHMC low cell density IgE activation: tryptase assay; type: cell-based; conditions: anti-IgE
Summary of the method: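 Supernatant tryptase activity, assayed with substrate for 30 min at room temperature, served as the degranulation measure. Mast cells (1000-1500 per well depending on donor) sat 1 hr at 37° C in MT before a 30 min anti-IgE challenge at 37° C.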

[2] = system: cultured human mast cells (CHMC); assay: CHMC low cell density ionomycin activation: tryptase assay; type: cell-based

Row | Compound | IC50 [1] [nM] | IC50 [2] [nM]
1 | COc1ccc(Nc2nc(NC3CCN(Cc4ccccc4)CC3)ncc2F)cc1OC [R940263, N2-[4-(N-Benzylpiperidino)]-N4-(3,4-dimethoxyphenyl)-5-fluoro-2,4-pyrimidinediamine] | > 10000 | > 10000
2 | O=C1OCc2ccc(Nc3ncc(F)c(Nc4ccc5c(c4)OCCO5)n3)cc21 [R926786, N2-(1,1-Dihydroisobenzofuran-1-one-6-yl)-N4-(3,4-ethylenedioxyphenyl)-5-fluoro-2,4-pyrimidinediamine] | 504 | > 10000
3 | Oc1cccc(Nc2ccnc(Nc3ccc(OCc4nn[nH]n4)cc3)n2)c1 [R920819, N4-(3-Hydroxyphenyl)-N2-[4-(1H,1,2,3,4-tetrazol-5-yl)methyleneoxyphenyl]-2,4-pyrimidinediamine] | 10000 | > 10000
4 | Fc1cnc(Nc2ccc3c(c2)OCCO3)nc1NNc1ccc2c(c1)OCO2 [R926406, N2-(3,4-Ethylenedioxyphenyl)-N4-(3,4-methylenedioxyphenylhydrazinyl)-5-fluoro-2-pyrimidineamine] | > 10000 | > 10000
5 | Fc1cnc(Nc2cccc(NCCOCc3ccccc3)c2)nc1Nc1cccc(NCCOCc2ccccc2)c1 [R950174, N2,N4-Bis[3-(N-benzyloxyethyleneamino)phenyl]-5-fluoro-2,4-pyrimidinediamine] | 4620 | > 10000
6 | N2-(3-Ethylcarboxy-4H-imidazo[5,1-c]-1,4-benzoxazin-6-yl)-5-fluoro-N4-(3-hydroxyphenyl)pyrimidinediamine [R909267] | 589 | > 10000
7 | CC(C)(C)OC(=O)COc1ccc(Nc2ncc(F)c(Nc3ccc(OCC(=O)OC(C)(C)C)cc3)n2)cc1 [R926574, N2,N4-Bis[4-(tert-butoxycarbonylmethyleneoxy)phenyl]-5-fluoro-2,4-pyrimidinediamine] | 1960 | 2630
8 | CCCNC(=O)COc1ccc(Nc2ncc(C#N)c(Nc3ccc(OCC(=O)NCCC)cc3)n2)cc1 [R925853, N2,N4-Bis[4-(N-n-propylamino)carbonylmethyleneoxyphenyl]-5-cyano-2,4-pyrimidinediamine] | > 10000 | > 10000
9 | CCOC(=O)COc1cccc(Nc2ncc(F)c(Nc3cc(OC)cc(OC)c3)n2)c1 [R926795, N4-(3,5-Dimethoxyphenyl)-N2-(3-ethoxycarbonylmethyleneoxyphenyl)-5-fluoro-2,4-pyrimidinediamine] | 2040 | > 10000
10 | OCCn1ncc2ccc(Nc3ncc(F)c(Nc4ccc5c(c4)OCCO5)n3)cc21 [R935248, N4-(3,4-Ethylenedioxyphenyl)-5-fluoro-N2-[1-(2-hydroxyethyl)indazoline-6-yl]-2,4-pyrimidinediamine] | 1100 | > 10000
11 | CCOC(=O)c1cnc(Nc2ccc3cn[nH]c3c2)nc1Nc1ccc2cn[nH]c2c1 [R926320, N2,N4-Bis(3-indazol-6-yl)-5-ethoxycarbonyl-2,4-pyrimidinediamine] | > 10000 | > 10000
12 | CCOC(=O)CCn1ncc2ccc(Nc3ncc(F)c(Nc4ccc5c(c4)OCCO5)n3)cc21 [R935286, N2-[1-(2-ethoxycarbonylethyl)indazoline-6-yl]-N4-(3,4-ethylenedioxyphenyl)-5-fluoro-2,4-pyrimidinediamine] | 1160 | > 10000
13 | CNC(=O)Cn1ncc2cc(Nc3ncc(F)c(Nc4ccc5c(c4)OCCO5)n3)ccc21 [R935240, N4-(3,4-Ethylenedioxyphenyl)-5-fluoro-N2-[1-(N-methylaminocarbonyl)methyl-indazoline-5-yl]-2,4-pyrimidinediamine] | 606 | > 10000
14 | OCCNc1cccc(Nc2ncc(F)c(Nc3ccc4c(c3)OCCO4)n2)c1 [R950208, N4-(3,4-Ethylenedioxyphenyl)-5-fluoro-N2-[3-(hydroxyethyleneamino)phenyl]-2,4-pyrimidinediamine] | 267 | > 10000

More lines, now with the values ahead:

Row | IC50 [1] [nM] | IC50 [2] [nM] | Compound
15 | > 10000 | > 10000 | CCOC(=O)CNC(=O)Nc1c(Nc2ccc(OCC(=O)OCC)cc2)nc(Nc2ccc(OCC(=O)OCC)cc2)nc1C(=O)OCC [R926587, N2,N4-Bis(4-ethoxycarbonylmethyleneoxyphenyl)-6-ethoxycarbonyl-5-(ethoxycarbonylmethyleneaminocarbonylamino)-2,4-pyrimidinediamine]
16 | 729 | > 10000 | OCCOc1ccc(Nc2ncc(F)c(Nc3ccc4c(c3)OCCCO4)n2)cc1 [R935183, 5-Fluoro-N2-[4-(2-hydroxyethoxy)phenyl]-N4-(3,4-propylenedioxyphenyl)-2,4-pyrimidinediamine]
17 | 625 | > 10000 | COC(=O)COc1ccc(Nc2nc(Nc3ccc(OCC#N)cc3)ncc2F)cc1 [R945062, N2-(4-Cyanomethyleneoxyphenyl)-5-fluoro-N4-(4-methoxycarbonylmethyleneoxyphenyl)-2,4-pyrimidinediamine]
18 | 568 | > 10000 | COC(=O)c1cc(Nc2nc(Nc3ccc4c(c3)OCCO4)ncc2F)cn1C [R935166, N2-(3,4-Ethylenedioxyphenyl)-5-fluoro-N4-[(N-methyl-2-methoxycarbonyl)pyrrol-4-yl]-2,4-pyrimidinediamine]
19 | 391 | > 10000 | Fc1cnc(Nc2ccc3c(c2)OCCO3)nc1Nc1ccc2cn[nH]c2c1 [R935261, N2-(3,4-Ethylenedioxyphenyl)-5-fluoro-N4-(indazoline-6-yl)-2,4-pyrimidinediamine]
20 | 2520 | > 10000 | CCOC(=O)CNC(=O)Oc1cccc(Nc2nc(Nc3cccc(OCC(=O)NC)c3)ncc2F)c1 [R926918, N4-[3-[[N-(Ethoxycarbonylmethyl)amino]carbonyloxy]phenyl]-5-fluoro-N2-[3-[(N-methylamino)carbonylmethyleneoxy]phenyl]-2,4-pyrimidinediamine]
21 | 324 | 4390 | O=C(COc1cccc(Nc2ncc(F)c(Nc3ccc4c(c3)OCCO4)n2)c1)NC1CCCCC1 [R926765, N2-[3-(N-Cyclohexylamino)carbonylmethyleneoxyphenyl]-N4-(3,4-ethylenedioxyphenyl)-5-fluoro-2,4-pyrimidinediamine]
22 | 2500 | 6200 | CCOC(=O)C(C)Oc1ccc(Nc2ncc(C)c(Nc3ccc(OC(C)C(=O)OCC)cc3)n2)cc1 (racemic) [R926259, (±)-N2,N4-Bis[4-ethoxycarbonyl(alpha-methyl)methyleneoxyphenyl]-5-methyl-2,4-pyrimidinediamine]
23 | 10000 | > 10000 | CNCCNC(=O)CNc1cccc(Nc2ncc(F)c(Nc3cccc(NCCO)c3)n2)c1 [R950234, 5-Fluoro-N4-[3-(2-hydroxyethylamino)phenyl]-N2-[3-[N-(2-methylamino)ethylamino]carbonylmethyleneaminophenyl]-2,4-pyrimidinediamine]
24 | 2040 | 8800 | COC(=O)COc1cccc(Nc2ncc(F)c(Nc3ccc4c(c3)C(OC)CCO4)n2)c1 (centres unmarked) [R950295, N4-(4-Methoxy-3,4-dihydro-2H-1-benzopyran-6-yl)-5-fluoro-N2-[3-methoxycarbonylmethyleneoxyphenyl]-2,4-pyrimidinediamine]
25 | 770 | > 10000 | COC(=O)c1cc2cc(Nc3nc(Nc4cccc(OCc5noc(C)n5)c4)ncc3F)ccc2o1 [R945131, 5-Fluoro-N4-(2-methoxycarbonylbenzofuran-5-yl)-N2-[3-(5-methyl-1,2,4-oxadiazol-3-yl)methyleneoxyphenyl]-2,4-pyrimidinediamine]
26 | 425 | 2480 | COC(=O)COc1ccc(Nc2ncc(F)c(Nc3ccc(OCC(N)=O)cc3)n2)cc1 [R945052, N4-(4-Aminocarbonylmethyleneoxyphenyl)-5-fluoro-N2-(4-methoxycarbonylmethyleneoxyphenyl)-2,4-pyrimidinediamine]
27 | 247 | > 10000 | CNC(=O)COc1cccc(Nc2ncc(F)c(Nc3cnc4c(c3)OCC(=O)N4)n2)c1 [R945242, 5-Fluoro-N2-(3-methylaminocarbonylmethyleneoxyphenyl)-N4-[2H-pyrido[3,2-b]-1,4-oxazin-3(4H)-one-7-yl]-2,4-pyrimidinediamine]
28 | 1380 | > 10000 | Oc1cccc(Nc2ncc(F)c(Nc3ccc4c(c3)OC(F)(F)O4)n2)c1 [R926794, N4-(3,4-Difluoromethylenedioxyphenyl)-5-fluoro-N2-(3-hydroxyphenyl)-2,4-pyrimidinediamine]
29 | 562 | > 10000 | O=C1CN=C2COc3ccc(Nc4nc(Nc5cccc(O)c5)ncc4F)cc3N12 [R945236, N4-[2,4-Dihydro-1-oxo-4H-imidazo[2,1-c][1,4]benzoxazin-8-yl]-5-fluoro-N2-(3-hydroxyphenyl)-2,4-pyrimidinediamine]
30 | 865 | > 10000 | O=C(CNc1cccc(Nc2ncc(F)c(Nc3cccc(O)c3)n2)c1)N1CCNCC1 [R950222, 5-Fluoro-N4-(3-hydroxyphenyl)-N2-[3-(N-piperazino)carbonylmethyleneaminophenyl]-2,4-pyrimidinediamine]
31 | 1040 | > 10000 | CNC(=O)COc1cccc(Nc2ncc(F)c(Nc3ccc4c(c3)N(C)C(=O)CO4)n2)c1 [R909260, 5-Fluoro-N2-[3-(N-methylaminocarbonylmethyleneoxy)phenyl]-N4-[6-(N-methyl-1,4-benzoxazin-3-onyl)]pyrimidinediamine]
32 | 1080 | > 10000 | CNC(=O)COc1ccc(Nc2ncc(F)c(Nc3ccc(C(C)(C)C)cc3)n2)cc1 [R926712, N4-(4-tert-Butylphenyl)-5-fluoro-N2-[4-(N-methylamino)carbonylmethyleneoxyphenyl]-2,4-pyrimidinediamine]
33 | 8350 | > 10000 | COCc1cc(=O)oc2cc(Nc3ncc(F)c(Nc4ccc5c(COC)cc(=O)oc5c4)n3)ccc12 [R926620]
34 | 914 | > 10000 | CNC(=O)COc1cccc(Nc2ncc(F)c(Nc3cc(OC)cc(OC)c3)n2)c1 [R926796, N4-(3,5-Dimethoxyphenyl)-5-fluoro-N2-[3-(N-methylamino)carbonylmethyleneoxyphenyl]-2,4-pyrimidinediamine]
